Laboratory results as given in patent publication US20030229087A1 (priority 2002, published 2003).

What was measured:
Assay type in all cases: in vivo
Leptosphaeria nodorum = Leptosphaeria nodorum test (wheat)/protective; conditions: protective, application rate 25 g/ha, evaluation 10 days after inoculation
Method: Leptosphaeria nodorum Test (Wheat)/Protective
To produce a suitable preparation of active compound, 1 part by weight of active compound or active compound combination is mixed with the stated amounts of solvents and emulsifier, and the concentrate is diluted with water to the desired concentration.
(§1) To test for protective activity, young plants are sprayed with the preparation of active compound at the stated application rate. After the spray coating has dried on, the plants are sprayed with a spore suspension of Leptosphaeria nodorum. The plants remain in an incubation cabin at 20° C. and 100% relative atmospheric humidity for 48 hours.
The plants are placed in a greenhouse at a temperature of approximately 15° C. and a relative atmospheric humidity of 80%.
Evaluation is carried out 10 days after the inoculation. 0% means an efficacy which corresponds to that of the control, whereas an efficacy of 100% means that no infection is observed.

[1] = system: Erysiphe graminis f.sp. tritici; assay: Erysiphe test (wheat)/protective; conditions: protective, application rate 6.25 g/ha, evaluation 7 days after inoculation
Method: Erysiphe Test (Wheat)/Protective
(§2) To produce a suitable preparation of active compound, 1 part by weight of active compound or active compound combination is mixed with the stated amounts of solvent and emulsifier, and the concentrate is diluted with water to the desired concentration.
(§3) To test for protective activity, young plants are sprayed with the preparation of active compound at the stated application rate.
After the spray coating has dried on, the plants are dusted with spores of Erysiphe graminis f.sp. tritici.
(§4) The plants are placed in a greenhouse at a temperature of approximately 20° C. and a relative atmospheric humidity of approximately 80% to promote the development of mildew postules.
(§5) Evaluation is carried out 7 days after the inoculation. 0% means an efficacy which corresponds to that of the control, whereas an efficacy of 100% means that no infection is observed.

Sphaerotheca fuliginea = assay: whole plant or invertebrate; conditions: Podosphaera fuliginea, in Cucumis sativus, 240 h, read-out: % Efficacy
Phytophthora infestans = assay: whole plant or invertebrate; conditions: Phytophthora infestans, in Solanum lycopersicum, 72 h, read-out: % Efficacy
Pyrenophora teres = Pyrenophora teres test (barley)/protective; conditions: protective, application rate 25 g/ha, evaluation 7 days after inoculation
Method: Pyrenophora teres Test (Barley)/Protective
as §2
as §1, with “conidia” for “spore”, “Pyrenophora teres.” for “Leptosphaeria nodorum.”
The plants are then placed in a greenhouse at a temperature of approximately 20° C. and a relative atmospheric humidity of approximately 80%.
as §5

[2] = system: Erysiphe graminis f.sp. hordei; assay: Erysiphe test (barley)/protective; conditions: Blumeria graminis, 168 h, protective, application rate 12.5 g/ha, evaluation 7 days after inoculation, read-out: Efficacy in %
Method: Erysiphe Test (Barley)/Protective
as §2, §3
After the spray coating has dried on, the plants are dusted with spores of Erysiphe graminis f.sp. hordei.
as §4, §5

Compound | Efficacy in % (Leptosphaeria nodorum) [%] | Efficacy in % [1] [%] | pest or weed control at 0.5 g/ha (Sphaerotheca fuliginea) [%] | pest or weed control at 1 g/ha (Sphaerotheca fuliginea) [%] | pest or weed control at 0.5 g/ha (Phytophthora infestans) [%] | pest or weed control at 1 g/ha (Phytophthora infestans) [%] | pest or weed control at 2 g/ha (Phytophthora infestans) [%] | Efficacy in % (Pyrenophora teres) [%] | pest or weed control at 12.5 g/ha [2] [%]
CNC(=O)/C(=N/OC)c1ccccc1Oc1ncnc(Oc2cccc(Cl)c2C)c1F [Compound of the formula (I), (2E/Z)-2-(2-{[6-(3-chloro-2-methylphenoxy)-5-fluoro-4-pyrimidinyl]oxy}phenyl)-2-(methoxyimino)-N-methylethanamide] | 60 | 0 | 30 | 69 | 32 | 60 | 72 | 60 | 80
Fc1ccc(C2(Cn3cncn3)OC2c2ccccc2Cl)cc1 (centres unmarked) [epoxiconazole (XI) (10), epoxiconazole] |  | 70 |  |  |  |  |  | 60 | 
